{"source": "patent US11524966B1", "about": "(Valo Early Discovery, Inc., priority 2017, dated 2022)", "data": [{"target": "T1, USP28 (USP28-5(1-1077)-TEV-6*His; LifeSensors) (Homo sapiens, UniProt Q96RU2)", "T1 construct": "construct USP28 (USP28-5(1-1077)-TEV-6*His; LifeSensors); TEV cleavage site (C); 6xHis (C); purchased LifeSensors", "T1 sequence (Q96RU2 1-1077)": "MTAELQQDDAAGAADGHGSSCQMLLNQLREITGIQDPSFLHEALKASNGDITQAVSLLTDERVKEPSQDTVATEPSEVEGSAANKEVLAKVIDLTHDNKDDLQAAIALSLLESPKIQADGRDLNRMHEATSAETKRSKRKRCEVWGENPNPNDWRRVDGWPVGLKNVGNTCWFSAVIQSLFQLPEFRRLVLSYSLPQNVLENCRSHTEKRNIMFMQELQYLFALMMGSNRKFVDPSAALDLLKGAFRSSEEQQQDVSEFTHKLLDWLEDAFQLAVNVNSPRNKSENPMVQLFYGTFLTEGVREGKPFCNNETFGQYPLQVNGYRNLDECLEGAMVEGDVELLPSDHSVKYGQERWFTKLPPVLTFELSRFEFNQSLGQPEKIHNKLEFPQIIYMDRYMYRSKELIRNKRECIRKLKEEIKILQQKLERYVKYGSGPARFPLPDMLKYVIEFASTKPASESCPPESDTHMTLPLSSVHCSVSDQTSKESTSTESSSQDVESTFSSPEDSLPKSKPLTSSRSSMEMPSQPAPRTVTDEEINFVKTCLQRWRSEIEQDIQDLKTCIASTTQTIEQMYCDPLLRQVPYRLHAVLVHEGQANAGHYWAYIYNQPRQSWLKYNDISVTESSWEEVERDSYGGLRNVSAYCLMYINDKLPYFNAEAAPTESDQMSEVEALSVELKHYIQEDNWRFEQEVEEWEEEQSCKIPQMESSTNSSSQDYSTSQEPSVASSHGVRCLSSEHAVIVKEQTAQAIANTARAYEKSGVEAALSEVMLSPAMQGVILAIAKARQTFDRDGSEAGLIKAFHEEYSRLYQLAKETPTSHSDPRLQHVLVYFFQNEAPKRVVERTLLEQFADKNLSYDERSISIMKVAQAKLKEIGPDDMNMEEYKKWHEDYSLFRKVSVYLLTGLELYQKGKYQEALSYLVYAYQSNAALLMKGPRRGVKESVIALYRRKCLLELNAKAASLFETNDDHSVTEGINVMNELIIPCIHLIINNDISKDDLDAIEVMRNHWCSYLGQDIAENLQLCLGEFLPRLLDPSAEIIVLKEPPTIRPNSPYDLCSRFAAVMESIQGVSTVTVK", "test": "Ubiquitin-Rhodamine 110 Assay for USP28 Activity, Example A-1(b)", "format": "biochemical", "conditions": "Ubiquitin-Rhodamine 110 assay, Example A-1(b)", "summary_of_the_method": "(§1)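 Single-point screening used 10 μM compound with 90 min room-temperature incubation; follow-up dose-responses (25 μM top, 3-fold) used 75 pM USP28 1-1077 construct, 30 min compound preincubation, 25 nM Ub-Rh110, 20 min reaction, citric acid quench. Rh110 fluorescence normalised to no-enzyme and DMSO controls; IC50 from 4-parameter logistic fit.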", "values": [{"smiles": "Cc1ccc2c(N)c(C(=O)N[C@H]3COc4cc(C5(F)CCNCC5)ccc4C3)sc2n1", "note": "[Example 8-1, (R)-3-Amino-N-(7-(4-fluoropiperidin-4-yl)chroman-3-yl)-6-methylthieno[2,3-b]pyridine-2-carboxamide]", "USP28 A-1(b) IC50 range": "++++ (0.001-0.05 μM)"}, {"smiles": "Cc1ccc2c(N)c(C(=O)N[C@H]3COc4cc(N5CCNCC5)cc(F)c4C3)sc2n1", "note": "[Example 10-1, (R)-3-amino-N-(5-fluoro-7-(piperazin-1-yl)chroman-3-yl)-6-methylthieno[2,3-b]pyridine-2-carboxamide]", "USP28 A-1(b) IC50 range": "+++ (0.05-0.2 μM)"}, {"smiles": "Cc1ccc2c(N)c(C(=O)N[C@@H]3COc4cc(N5CCNCC5)cc(F)c4C3)sc2n1", "note": "[Example 10-5, (S)-3-amino-N-(5-fluoro-7-(piperazin-1-yl)chroman-3-yl)-6-methylthieno[2,3-b]pyridine-2-carboxamide]", "USP28 A-1(b) IC50 range": "+ (>2 μM)"}, {"smiles": "Cc1ccc2c(N)c(C(=O)N[C@H]3COc4cc(N5CC6CNCC(C5)O6)cc(F)c4C3)sc2n1", "note": "[Example 10-6, N-((3R)-7-(9-oxa-3,7-diazabicyclo[3.3.1]nonan-3-yl)-5-fluorochroman-3-yl)-3-amino-6-methylthieno[2,3-b]pyridine-2-carboxamide]", "USP28 A-1(b) IC50 range": "++++ (0.001-0.05 μM)"}, {"smiles": "Cc1cc(C)c2c(N)c(C(=O)N[C@H]3COc4cc(N5CC6CC(C5)N6)cc(F)c4C3)sc2n1", "note": "[Example 10-7, N-((3R)-7-(3,6-diazabicyclo[3.1.1]heptan-3-yl)-5-fluorochroman-3-yl)-3-amino-4,6-dimethylthieno[2,3-b]pyridine-2-carboxamide]", "USP28 A-1(b) IC50 range": "+++ (0.05-0.2 μM)"}, {"smiles": "Cc1cnc2c(N)c(C(=O)N[C@H]3COc4cc(N5CC6CC(C5)N6)cc(F)c4C3)sc2n1", "note": "[Example 10-8, N-((3R)-7-(3,6-diazabicyclo[3.1.1]heptan-3-yl)-5-fluorochroman-3-yl)-7-amino-3-methylthieno[2,3-b]pyrazine-6-carboxamide]", "USP28 A-1(b) IC50 range": "+++ (0.05-0.2 μM)"}, {"smiles": "Cc1cc(C)c2c(N)c(C(=O)N[C@H]3COc4cc(N5CCNCC5)cc(F)c4C3)sc2n1", "note": "[Example 10-9, (R)-3-amino-N-(5-fluoro-7-(piperazin-1-yl)chroman-3-yl)-4,6-dimethylthieno[2,3-b]pyridine-2-carboxamide]", "USP28 A-1(b) IC50 range": "+++ (0.05-0.2 μM)"}, {"smiles": "Cc1cnc2c(N)c(C(=O)N[C@H]3COc4cc(N5CCNCC5)cc(F)c4C3)sc2n1", "note": "[Example 10-10, (R)-7-amino-N-(5-fluoro-7-(piperazin-1-yl)chroman-3-yl)-3-methylthieno[2,3-b]pyrazine-6-carboxamide]", "USP28 A-1(b) IC50 range": "+++ (0.05-0.2 μM)"}, {"smiles": "COc1ccc2c(N)c(C(=O)N[C@H]3COc4cc(N5CCNCC5)cc(F)c4C3)sc2n1", "note": "[Example 10-11, (R)-3-amino-N-(5-fluoro-7-(piperazin-1-yl)chroman-3-yl)-6-methoxythieno[2,3-b]pyridine-2-carboxamide]", "USP28 A-1(b) IC50 range": "++ (0.2-2 μM)"}, {"smiles": "Cc1cnc2c(N)c(C(=O)N[C@H]3COc4cc(N5CC6CNCC(C5)O6)cc(F)c4C3)sc2n1", "note": "[Example 10-12, N-((3R)-7-(9-oxa-3,7-diazabicyclo[3.3.1]nonan-3-yl)-5-fluorochroman-3-yl)-7-amino-3-methylthieno[2,3-b]pyrazine-6-carboxamide]", "USP28 A-1(b) IC50 range": "++++ (0.001-0.05 μM)"}, {"smiles": "Cc1cc(C)c2c(N)c(C(=O)N[C@H]3COc4cc(N5CC6CNCC(C5)O6)cc(F)c4C3)sc2n1", "note": "[Example 10-13, N-((3R)-7-(9-oxa-3,7-diazabicyclo[3.3.1]nonan-3-yl)-5-fluorochroman-3-yl)-3-amino-4,6-dimethylthieno[2,3-b]pyridine-2-carboxamide]", "USP28 A-1(b) IC50 range": "++++ (0.001-0.05 μM)"}, {"smiles": "Cc1cc(C(F)(F)F)c2c(N)c(C(=O)N[C@H]3COc4cc(N5CCNCC5)cc(F)c4C3)sc2n1", "note": "[Example 10-14, (R)-3-amino-N-(5-fluoro-7-(piperazin-1-yl)chroman-3-yl)-6-methyl-4-(trifluoromethyl)thieno[2,3-b]pyridine-2-carboxamide]", "USP28 A-1(b) IC50 range": "++ (0.2-2 μM)"}, {"smiles": "Cc1ccc2c(N)c(C(=O)N[C@H]3CCc4cc(N5CC6CCC(C5)N6)ccc4C3)sc2n1", "note": "[Example 11-1, N-((2S)-6-(3,8-diazabicyclo[3.2.1]octan-3-yl)-1,2,3,4-tetrahydronaphthalen-2-yl)-3-amino-6-methylthieno[2,3-b]pyridine-2-carboxamide]", "USP28 A-1(b) IC50 range": "+++ (0.05-0.2 μM)"}, {"smiles": "Cc1ccc2c(N)c(C(=O)N[C@@H]3CCc4cc(N5CC6CCC(C5)N6)ccc4C3)sc2n1", "note": "[Example 11-2, N-((2R)-6-(3,8-diazabicyclo[3.2.1]octan-3-yl)-1,2,3,4-tetrahydronaphthalen-2-yl)-3-amino-6-methylthieno[2,3-b]pyridine-2-carboxamide]", "USP28 A-1(b) IC50 range": "++ (0.2-2 μM)"}]}, {"target": "T1, USP28 (USP28-5(1-1077)-TEV-6*His; LifeSensors)", "test": "Ubiquitin-Rhodamine 110 Assay for USP28 Activity, Example A-1(b)", "format": "biochemical", "conditions": "Ubiquitin-Rhodamine 110 assay, format Example A-1(b)", "summary_of_the_method": "as §1", "values": [{"smiles": "Cc1ccc2c(N)c(C(=O)N[C@H]3CCc4c(F)c(N5CCNCC5)cc(F)c4C3)sc2n1", "note": "(single isomer, unassigned) [Example 22-1]", "USP28 A-1(b) IC50 range": "++ (0.2-2 μM)"}, {"smiles": "Cc1ccc2c(N)c(C(=O)N[C@@H]3CCc4c(F)c(N5CCNCC5)cc(F)c4C3)sc2n1", "note": "(single isomer, unassigned) [Example 22-2]", "USP28 A-1(b) IC50 range": "+++ (0.05-0.2 μM)"}, {"smiles": "Cc1ccc2c(N)c(C(=O)N[C@H]3COc4cc(N5CC6CCC(C5)N6)c(F)c(F)c4C3)sc2n1", "note": "[Example 13-3, N-((3R)-7-(3,8-diazabicyclo[3.2.1]octan-3-yl)-5,6-difluorochroman-3-yl)-3-amino-6-methylthieno[2,3-b]pyridine-2-carboxamide]", "USP28 A-1(b) IC50 range": "+ (>2 μM)"}, {"smiles": "Cc1ccc2c(N)c(C(=O)N[C@@H]3COc4cc(N5CC6CCC(C5)N6)c(F)c(F)c4C3)sc2n1", "note": "[Example 13-4, N-((3S)-7-(3,8-diazabicyclo[3.2.1]octan-3-yl)-5,6-difluorochroman-3-yl)-3-amino-6-methylthieno[2,3-b]pyridine-2-carboxamide]", "USP28 A-1(b) IC50 range": "++++ (0.001-0.05 μM)"}, {"smiles": "Cc1ccc2c(N)c(C(=O)N[C@H]3COc4cc(N5CCNCC5)c(Cl)cc4C3)sc2n1", "note": "[Example 13-5, (R)-3-amino-N-(6-chloro-7-(piperazin-1-yl)chroman-3-yl)-6-methylthieno[2,3-b]pyridine-2-carboxamide]", "USP28 A-1(b) IC50 range": "+ (>2 μM)"}, {"smiles": "Cc1ccc2c(N)c(C(=O)N[C@@H]3COc4c(ccc(N5CCNCC5)c4Cl)C3)sc2n1", "note": "[Example 13-8, (S)-3-amino-N-(8-chloro-7-(piperazin-1-yl)chroman-3-yl)-6-methylthieno[2,3-b]pyridine-2-carboxamide]", "USP28 A-1(b) IC50 range": "+ (>2 μM)"}, {"smiles": "Cc1ccc2c(N)c(C(=O)N[C@H]3COc4c(ccc(N5CCNCC5)c4Cl)C3)sc2n1", "note": "[Example 13_7, (R)-3-amino-N-(8-chloro-7-(piperazin-1-yl)chroman-3-yl)-6-methylthieno[2,3-b]pyridine-2-carboxamide]", "USP28 A-1(b) IC50 range": "+++ (0.05-0.2 μM)"}, {"smiles": "Cc1ccc2c(N)c(C(=O)N[C@H]3COc4cc(N5CCNCC5)ncc4C3)sc2n1", "note": "[Example 16, (R)-3-Amino-6-methyl-N-(7-(piperazin-1-yl)-3,4-dihydro-2H-pyrano[3,2-c]pyridin-3-yl)thieno[2,3-b]pyridine-2-carboxamide]", "USP28 A-1(b) IC50 range": "++ (0.2-2 μM)"}]}]}
